Columns and labels:
[1] = tested on: LPS-stimulated mouse B cells; assay: IgM secretion by ELISA; assay type: cell-based; conditions: supernatant after 3 days
From the text: We also evaluated plasmablast differentiation and IgM secretion in LPS-stimulated cells (Figure 5D). […] In cells treated with IPI-3063 or IPI-443, the highest concentrations inhibited plasmablast differentiation to the same degree as GDC-0941.
For cell culture ELISA to measure total IgM, supernatants from purified B cells stimulated with LPS were collected after 3 days and diluted 1:1,000 in 2% (wt/vol) BSA in PBS. Nunc Maxisorp plates (Thermo Fisher) were coated with anti-mouse IgM (RMM-1; BioLegend) at 10 µg/mL in 50 µL of total sample in PBS and allowed to incubate overnight at 4°C. Diluted supernatant samples were incubated on coated plates for 1 h at 37°C. HRP-conjugated rabbit anti-mouse IgM secondary antibody (Zymed) was used.

[2] = tested on: AKT phosphorylation in bone marrow-derived myeloid cells; assay: AKT phosphorylation in myeloid cells stimulated with macrophage colony stimulating factor; assay type: cell-based; conditions: data not shown
[3] = tested on: mouse B cells; assay: mouse B cell proliferation (CFSE); assay type: cell-based; conditions: αIgM + IL-4, 72 h
Protocol: Next, we evaluated the effects of PI3K inhibitors on B cell proliferation. We stimulated CFSE-stained cells with αIgM + IL-4 or with LPS for 72 h, or with αCD40 + IL-4 or LPS + IL-4 for 96 h. Cells were treated with vehicle or GDC-0941, IPI-3063, IPI-443, or AS-252424 at various concentrations. […] IPI-443 caused a dose-dependent decrease in proliferation, whereas AS-252424 had no effect. […] In B cells stimulated with LPS + IL-4, the inhibitors had similar trends, but with greater variability (Figure 3D). […] Overall, these experiments establish that the selective p110δ inhibitor IPI-3063 is a very potent inhibitor of B cell survival and proliferation in vitro. In addition, selective p110γ inhibition alone had no effect on B cell survival or proliferation.
Total splenocytes (A,B) or purified B cells (C–E) were pretreated with inhibitors for 30 min, then stimulated with (A,B) αIgM + IL-4 for 72 h, (C–E) LPS + IL-4 for 96 h, LPS for 72 h, or αCD40 + IL-4 for 96 h. […] The experiments in panel (C) include low concentrations of IPI-3063 (0.01 and 0.1 nM) Total numbers were determined by the number of B220^+7AAD^−CFSE^lo cells. […]
Before cell surface staining, cells were incubated with TruStain fcX in FACS buffer (0.5% BSA + 0.02% NaN3 in 1× HBSS) to block Fc receptors for 10 min on ice. […] Flow cytometric data were analyzed using FlowJo software (TreeStar). […]

[4] = target: p110γ (Mus musculus, UniProt Q9JHG7); set-up: method as in PMID 16789742; conditions: read-out: biochemical IC50; cited from earlier work
[5] = tested on: p110δ; assay: isoform-specific cell-based assay, pAKT S473 ELISA
Protocol: (§1) Phospho-Akt1 (S473) sandwich ELISA antibody kit (Cell Signaling Technology, cat. no. 7143) was utilized to analyze pAKT signal in cells as described previously by Winkler et al. ([11]) (for data see Table 2). Briefly, SKOV3 and 786.0 cells were seeded into 96-well cell culture-graded plates at a density of […] per 200 µl culture media per well. Raji and Raw264.7 were seeded at the same density in FBS-free media. After overnight incubation at 5% CO2 and 37°C, the cells were treated with inhibitor for 30 min. Raji cells were stimulated with 10 µg/mL anti-human IgM (Jackson ImmunoResearch) for 30 min and Raw264.7 cells with 25 nM C5a (RnD Systems) for 3 min in the presence of inhibitor. SKOV3 and 786.0 cells were not stimulated. Medium was then aspirated and 50 µL/well of ice-cold lysis buffer was added. pAKT level was determined according to the manufacturer’s instruction.

[6] = tested on: p110α; assay: isoform-specific cell-based assay, pAKT S473 ELISA; conditions: read-out: Cellular IC50
Protocol: as §1

[7] = set-up: method as in PMID 24211136; conditions: cited from earlier work

p110γ, sequence (Q9JHG7 whole entry, canonical isoform): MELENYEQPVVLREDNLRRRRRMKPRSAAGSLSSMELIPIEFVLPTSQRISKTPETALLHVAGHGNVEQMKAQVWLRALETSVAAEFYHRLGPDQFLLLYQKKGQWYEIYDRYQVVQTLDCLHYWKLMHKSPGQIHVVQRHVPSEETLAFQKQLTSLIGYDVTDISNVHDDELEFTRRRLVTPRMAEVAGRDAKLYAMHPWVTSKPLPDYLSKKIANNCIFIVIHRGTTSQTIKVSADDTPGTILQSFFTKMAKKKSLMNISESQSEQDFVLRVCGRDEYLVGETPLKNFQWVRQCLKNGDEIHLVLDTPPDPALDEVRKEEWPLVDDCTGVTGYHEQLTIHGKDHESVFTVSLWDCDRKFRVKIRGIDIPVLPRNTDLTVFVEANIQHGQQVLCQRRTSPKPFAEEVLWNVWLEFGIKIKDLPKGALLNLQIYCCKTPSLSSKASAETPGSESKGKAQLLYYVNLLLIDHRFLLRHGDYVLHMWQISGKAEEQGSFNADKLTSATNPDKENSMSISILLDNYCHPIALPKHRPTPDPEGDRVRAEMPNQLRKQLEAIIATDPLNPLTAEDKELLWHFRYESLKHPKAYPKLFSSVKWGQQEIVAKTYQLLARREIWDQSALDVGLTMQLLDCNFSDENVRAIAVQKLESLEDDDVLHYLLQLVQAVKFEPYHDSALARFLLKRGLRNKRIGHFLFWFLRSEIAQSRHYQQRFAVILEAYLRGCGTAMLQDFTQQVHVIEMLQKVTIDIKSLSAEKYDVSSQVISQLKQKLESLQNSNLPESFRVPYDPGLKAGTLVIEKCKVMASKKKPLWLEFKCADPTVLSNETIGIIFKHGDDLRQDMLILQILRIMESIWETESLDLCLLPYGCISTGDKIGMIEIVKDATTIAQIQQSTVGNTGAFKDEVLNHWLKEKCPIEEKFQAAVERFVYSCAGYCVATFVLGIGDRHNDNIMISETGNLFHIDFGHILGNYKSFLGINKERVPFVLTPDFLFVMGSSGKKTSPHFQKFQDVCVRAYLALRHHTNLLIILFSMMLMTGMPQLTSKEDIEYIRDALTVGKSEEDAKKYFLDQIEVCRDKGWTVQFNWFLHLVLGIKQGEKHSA

SMILES	effect on IgM secretion [1]	effect on AKT phosphorylation [2]	effect on proliferation [3]	IC50 [4] [µM]	cellular IC50 values for the other class I PI3K isoforms relative to p110δ ([5]; other class I isoforms vs p110δ, cell-based)	IC50 ([5]; p110δ-specific cell-based assay, pAKT S473, read-out: Cellular IC50) [µM]	IC50 [6] [µM]	pharmacokinetics in mice [7]	concentration that blocks/decreases proliferation [3] [nM]
O=C1NC(=O)/C(=C/c2ccc(-c3ccc(F)cc3O)o2)S1 [AS-252424, reference compound]	no significant effect	dose-dependent inhibition	no effect	0.03					
CC(C)n1c([C@H](C)Nc2ncnc(N)c2C#N)cc2cccc(-c3ccc(=O)n(C)c3)c2c1=O [IPI-3063]					at least 1,000 fold	0.0001 ± 1e-05	1.9	good	1

Source: publication PMC5491903, “The Selective Phosphoinoside-3-Kinase p110δ Inhibitor IPI-3063 Potently Suppresses B Cell Survival, Proliferation, and Differentiation” (Frontiers in Immunology, 2017)
